# Results from article PMC12615753, “Glutathione as a taste modulator: molecular mechanisms of interaction with umami and sweet taste receptors” (Food Chemistry: Molecular Sciences, 2025).
# Molecular target: T1, hTAS1R1 L223A/rTAS1R3 (Homo sapiens, UniProt Q7RTX1, L223A)
# T1 construct: UniProtKB number Q7RTX1–1); expressed in transfected cells; host or cells: HEK293T/17 (ATCC CRL-11268)
# T1 sequence (Q7RTX1 21-841 L223A): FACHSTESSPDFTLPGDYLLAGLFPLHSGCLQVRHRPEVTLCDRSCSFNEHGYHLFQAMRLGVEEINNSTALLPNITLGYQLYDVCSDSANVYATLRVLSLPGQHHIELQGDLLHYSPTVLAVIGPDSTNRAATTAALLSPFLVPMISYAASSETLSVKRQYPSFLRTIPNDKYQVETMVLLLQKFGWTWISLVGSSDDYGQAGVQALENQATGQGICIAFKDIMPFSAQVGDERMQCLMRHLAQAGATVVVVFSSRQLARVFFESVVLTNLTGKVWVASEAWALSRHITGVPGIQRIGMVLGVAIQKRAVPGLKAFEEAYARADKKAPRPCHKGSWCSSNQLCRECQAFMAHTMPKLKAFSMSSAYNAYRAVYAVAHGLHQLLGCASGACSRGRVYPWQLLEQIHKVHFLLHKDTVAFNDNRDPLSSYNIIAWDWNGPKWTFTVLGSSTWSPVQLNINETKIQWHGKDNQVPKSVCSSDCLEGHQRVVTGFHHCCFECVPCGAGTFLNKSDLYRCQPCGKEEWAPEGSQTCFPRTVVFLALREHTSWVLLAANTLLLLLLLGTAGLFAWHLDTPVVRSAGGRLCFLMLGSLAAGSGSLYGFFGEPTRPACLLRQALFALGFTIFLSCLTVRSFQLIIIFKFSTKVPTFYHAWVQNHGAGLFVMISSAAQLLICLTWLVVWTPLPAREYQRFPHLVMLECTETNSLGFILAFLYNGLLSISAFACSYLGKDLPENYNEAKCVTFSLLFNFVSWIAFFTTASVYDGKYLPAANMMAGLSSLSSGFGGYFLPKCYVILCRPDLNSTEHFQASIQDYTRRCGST
# T1 sequence (Q923K1 21-858 partner): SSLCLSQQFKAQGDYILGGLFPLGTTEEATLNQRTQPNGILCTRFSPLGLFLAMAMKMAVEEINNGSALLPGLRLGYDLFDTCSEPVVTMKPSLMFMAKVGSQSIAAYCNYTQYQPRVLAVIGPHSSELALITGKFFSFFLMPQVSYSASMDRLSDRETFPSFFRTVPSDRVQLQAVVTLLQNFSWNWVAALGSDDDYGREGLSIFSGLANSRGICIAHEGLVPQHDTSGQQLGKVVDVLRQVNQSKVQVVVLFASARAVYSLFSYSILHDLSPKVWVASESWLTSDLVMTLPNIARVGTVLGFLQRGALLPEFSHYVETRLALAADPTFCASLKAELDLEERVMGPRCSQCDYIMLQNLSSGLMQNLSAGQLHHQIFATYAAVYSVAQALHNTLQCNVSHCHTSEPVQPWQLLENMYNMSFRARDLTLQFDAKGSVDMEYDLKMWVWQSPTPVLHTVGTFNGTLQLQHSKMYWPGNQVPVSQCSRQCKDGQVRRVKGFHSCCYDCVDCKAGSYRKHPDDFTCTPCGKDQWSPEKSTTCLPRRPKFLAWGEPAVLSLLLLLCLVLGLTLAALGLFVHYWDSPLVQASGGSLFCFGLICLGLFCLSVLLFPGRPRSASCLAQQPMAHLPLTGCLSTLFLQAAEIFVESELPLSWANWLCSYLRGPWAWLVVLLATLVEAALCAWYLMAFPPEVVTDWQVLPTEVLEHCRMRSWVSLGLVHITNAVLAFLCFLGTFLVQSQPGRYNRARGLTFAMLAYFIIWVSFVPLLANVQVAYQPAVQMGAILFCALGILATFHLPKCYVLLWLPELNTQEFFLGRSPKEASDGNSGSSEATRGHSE
# Test: Calcium assay, hTAS1R1 mutant co-expressed with rTAS1R3
# Format: cell-based, rat
structure (smiles),measurement,setting,value
"N[C@@H](CCC(=O)N[C@@H](CS)C(=O)NCC(=O)O)C(=O)O [GSH, γ-L-glutamyl-L-cysteinyl-glycine]",EC50,,2.32 ± 0.308 mM
same,effect of the added compound (1 mM) on the response to L-Glu,L223A,synergy was observed
same,"response to the agonist alone, vs WT",L223A,significantly increased the initial amplitude
same,Max ∆F/F0,"L223A, GSH",1.71 ± 0.09
same,R1 = mutant EC50/WT EC50,"L223A, GSH",0.9
"N[C@@H](CCC(=O)O)C(=O)O [L-Glu, L-glutamic acid, reference compound]","response to the agonist alone, vs WT",L223A,increased the amplitude
